Source: patent US20240366581A1 (Hoffmann-La Roche Inc., priority 2022, published 2024)
Counter-ions that a name gives are not always drawn.

Key:
Assay type in all cases: biochemical
SIK1 = SIK1 (Homo sapiens (Human), UniProt P57059); assay: SIK1 enzymatic activity assay, RapidFire mass spectrometry (CHK-peptide phosphorylation); details: 5 nM SIK1, CHK-peptide, ATP, 30 min pre-incubation, 45 min reaction, RapidFire MS; read-out: SIK1 RF IC50
Experimental: (§1) In the presence of SIK2 (resp. SIK1 or SIK3) and ATP the CHK-peptide ([…] with C-terminal arginine amide modification) were phosphorylated at one of the four feasible serine's. Only one phosphorylation is observed under the assay conditions. 60 nl of each compound dilution series (12 point; dilution factor 3, generally 30 μM to 170 pM) in DMSO were transferred by acoustic dispensing to the assay plate and 30 min pre-incubated (ambient temperature) after the addition of 5 μl SIK1 (5 nM) resp. 5 μl SIK2 (0.5 nM) or 7 μl SIK3 (1.5 nM) in assay-buffer (12.5 mM HEPES (pH 7.0), 10 mM magnesium acetate, 0.005% BSA). 10 μM CHK-peptide solution and 5 μl 100 μM ATP for SIK1 & SIK2 resp. 3 μl for SIK3 in assay-buffer were added and incubated ambient for 45 min. 40 μl 0.125% formic acid in water were added to quench the reaction. RapidFire (RF) Mass Spectrometry was utilized for data generation as described below. The multiple charged species (3-5 charges) for the phosphorylated and non-phosphorylated form measured by MRM (Multiple Reaction Monitoring; API5000 or 6500+) or EIC (Extracted Ion Current; QToF) were summed up and the ratio calculated (sum phosphorylated species/sum all species) for data evaluation. Normalization was performed by Genedata software based on the non-inhibition control DMSO and the commercially available SIK inhibitor @ 1 μM YKL-05-099 (CAS number 1936529-65-5). The results of the assay are expressed in half-maximal inhibitory concentrations (IC50s) and are summarized below in Table 1.
(§2) Samples were aspirated by vacuum for max. 600 ms and loaded to C4-cartridge (Agilent; #G9203A) for 3000 ms@1.5 ml/min with 0.1% formic acid in water. Afterwards samples were transferred to the API5000 (API6500+) or QToF mass spectrometer for 4000 ms@1.25 ml/min with 90% acetonitrile; 10% water; 0.007% TFA; 0.093 formic acid. The cartridge was reconditioned for additional 500 ms with 0.1% formic acid in water
(§3) All MS analyses using the following MS-setup in MRM mode: Electrospray positive; Ion Spray Voltage: 4000V; Temperature: 550° C.; Collision Gas: 5; Curtain Gas: 15; Gas1: 40; Gas 2: 42; EP: 10
(§4) All MS analyses using the following MS-setup in Mode MS: Dual AJS Electrospray positive; VCap: 3000V; Drying & Sheath gas: 340° C.@81/min; Nebulizer: 60 psig; Nozzle Voltage: 2000V; Fragmentor: 130V; Skimmer: 35V; Oct1 RF Vpp: 700V; Ref masses on@5spectra/s

SIK2 = SIK2 (Homo sapiens (Human), UniProt Q9H0K1); assay: SIK2 enzymatic activity assay, RapidFire mass spectrometry (CHK-peptide phosphorylation); details: 0.5 nM SIK2, CHK-peptide, ATP, 30 min pre-incubation, 45 min reaction, RapidFire MS; read-out: SIK2 RF IC50
Experimental: as §1, §2, §3, §4

SIK3 = SIK3 (Homo sapiens (Human), UniProt Q9Y2K2); assay: SIK3 enzymatic activity assay, RapidFire mass spectrometry (CHK-peptide phosphorylation); details: 1.5 nM SIK3, CHK-peptide, ATP, 30 min pre-incubation, 45 min reaction, RapidFire MS; read-out: SIK3 RF IC50
Experimental: as §1, §2, §3, §4

Chain of SIK1 (P57059 whole entry): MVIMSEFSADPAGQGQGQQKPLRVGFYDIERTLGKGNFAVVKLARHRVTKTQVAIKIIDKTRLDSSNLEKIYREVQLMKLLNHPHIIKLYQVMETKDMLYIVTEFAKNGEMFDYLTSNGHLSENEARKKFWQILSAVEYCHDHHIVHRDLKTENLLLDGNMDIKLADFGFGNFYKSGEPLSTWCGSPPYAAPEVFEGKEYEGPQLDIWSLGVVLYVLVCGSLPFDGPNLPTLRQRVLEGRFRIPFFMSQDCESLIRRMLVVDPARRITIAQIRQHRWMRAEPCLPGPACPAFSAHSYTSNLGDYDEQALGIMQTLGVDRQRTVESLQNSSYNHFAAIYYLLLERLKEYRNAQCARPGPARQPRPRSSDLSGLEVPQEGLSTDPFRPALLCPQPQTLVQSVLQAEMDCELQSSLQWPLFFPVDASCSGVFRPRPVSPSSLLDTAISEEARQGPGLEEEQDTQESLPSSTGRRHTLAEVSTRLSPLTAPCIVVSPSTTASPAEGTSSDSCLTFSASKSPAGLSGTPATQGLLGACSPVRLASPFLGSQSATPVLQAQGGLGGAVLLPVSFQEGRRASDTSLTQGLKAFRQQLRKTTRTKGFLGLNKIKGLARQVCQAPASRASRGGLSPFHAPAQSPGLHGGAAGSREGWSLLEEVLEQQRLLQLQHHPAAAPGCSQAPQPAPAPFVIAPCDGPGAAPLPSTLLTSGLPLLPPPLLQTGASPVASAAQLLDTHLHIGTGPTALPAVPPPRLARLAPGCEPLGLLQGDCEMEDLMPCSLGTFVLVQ
Chain of SIK2 (Q9H0K1 whole entry): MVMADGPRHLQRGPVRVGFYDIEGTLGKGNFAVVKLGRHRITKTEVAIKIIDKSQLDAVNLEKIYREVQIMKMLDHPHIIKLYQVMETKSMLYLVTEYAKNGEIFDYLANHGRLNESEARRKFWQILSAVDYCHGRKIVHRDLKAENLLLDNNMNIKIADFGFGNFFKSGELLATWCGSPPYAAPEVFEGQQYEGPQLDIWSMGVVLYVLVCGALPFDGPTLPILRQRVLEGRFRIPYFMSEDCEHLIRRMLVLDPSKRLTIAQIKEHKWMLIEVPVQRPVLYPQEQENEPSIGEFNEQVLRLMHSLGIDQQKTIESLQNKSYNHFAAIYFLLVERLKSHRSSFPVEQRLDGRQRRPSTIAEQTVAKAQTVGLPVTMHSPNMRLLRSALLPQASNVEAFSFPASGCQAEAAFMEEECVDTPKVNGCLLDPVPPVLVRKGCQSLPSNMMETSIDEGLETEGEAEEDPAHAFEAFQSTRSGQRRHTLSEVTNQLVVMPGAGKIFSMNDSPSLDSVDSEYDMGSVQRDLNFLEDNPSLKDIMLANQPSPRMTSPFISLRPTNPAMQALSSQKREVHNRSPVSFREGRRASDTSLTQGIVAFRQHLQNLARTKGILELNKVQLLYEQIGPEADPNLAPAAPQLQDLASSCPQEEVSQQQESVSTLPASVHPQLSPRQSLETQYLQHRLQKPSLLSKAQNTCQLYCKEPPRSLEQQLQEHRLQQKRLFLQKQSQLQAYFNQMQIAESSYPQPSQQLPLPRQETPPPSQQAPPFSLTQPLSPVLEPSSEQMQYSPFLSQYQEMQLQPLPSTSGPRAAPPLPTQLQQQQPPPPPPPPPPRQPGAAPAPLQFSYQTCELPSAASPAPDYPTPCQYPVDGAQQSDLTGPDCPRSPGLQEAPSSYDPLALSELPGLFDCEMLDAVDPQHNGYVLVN
Chain of SIK3 (Q9Y2K2 whole entry): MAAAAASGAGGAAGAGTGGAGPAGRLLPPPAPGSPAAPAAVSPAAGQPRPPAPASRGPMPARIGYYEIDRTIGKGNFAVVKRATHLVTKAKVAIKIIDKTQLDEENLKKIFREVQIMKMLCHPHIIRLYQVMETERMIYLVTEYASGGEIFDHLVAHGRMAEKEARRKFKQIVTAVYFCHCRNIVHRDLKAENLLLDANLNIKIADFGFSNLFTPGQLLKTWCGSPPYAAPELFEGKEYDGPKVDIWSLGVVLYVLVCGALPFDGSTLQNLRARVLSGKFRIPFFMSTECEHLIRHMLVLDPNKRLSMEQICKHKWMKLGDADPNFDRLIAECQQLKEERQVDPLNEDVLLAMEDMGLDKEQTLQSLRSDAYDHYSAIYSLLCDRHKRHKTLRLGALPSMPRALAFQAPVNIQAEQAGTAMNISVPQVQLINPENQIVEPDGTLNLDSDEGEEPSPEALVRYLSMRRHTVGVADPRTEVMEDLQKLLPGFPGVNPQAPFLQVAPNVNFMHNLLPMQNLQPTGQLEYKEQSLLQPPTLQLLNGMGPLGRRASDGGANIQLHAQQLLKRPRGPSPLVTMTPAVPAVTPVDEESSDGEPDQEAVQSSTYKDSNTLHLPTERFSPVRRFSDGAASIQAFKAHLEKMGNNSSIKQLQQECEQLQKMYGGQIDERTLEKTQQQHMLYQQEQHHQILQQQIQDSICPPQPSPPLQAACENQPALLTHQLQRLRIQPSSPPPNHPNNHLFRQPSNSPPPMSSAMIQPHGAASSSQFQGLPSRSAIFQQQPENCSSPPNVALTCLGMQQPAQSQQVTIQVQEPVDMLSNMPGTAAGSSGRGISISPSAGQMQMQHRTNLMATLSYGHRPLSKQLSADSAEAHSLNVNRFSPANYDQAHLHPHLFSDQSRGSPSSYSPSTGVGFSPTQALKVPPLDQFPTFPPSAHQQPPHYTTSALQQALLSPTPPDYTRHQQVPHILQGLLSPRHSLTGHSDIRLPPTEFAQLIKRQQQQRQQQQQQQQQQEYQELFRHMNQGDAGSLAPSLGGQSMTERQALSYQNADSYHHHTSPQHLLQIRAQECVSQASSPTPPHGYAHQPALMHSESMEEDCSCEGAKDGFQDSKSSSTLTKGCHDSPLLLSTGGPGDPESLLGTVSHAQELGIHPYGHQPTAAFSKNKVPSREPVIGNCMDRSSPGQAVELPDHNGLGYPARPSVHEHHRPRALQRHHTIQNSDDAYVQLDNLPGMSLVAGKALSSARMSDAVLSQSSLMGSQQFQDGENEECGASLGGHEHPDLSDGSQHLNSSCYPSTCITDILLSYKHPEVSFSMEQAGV

| IC50 (SIK1) [nM] | IC50 (SIK2) [nM] | IC50 (SIK3) [nM] | Compound |
| --- | --- | --- | --- |
| 22500 | 995 | > 30000 | COC(=O)c1ccc(-n2cnc3cc(OC)c(OC)cc32)nc1-c1cccc(Cl)c1 [Example 13, Methyl 2-(3-chlorophenyl)-6-(5,6-dimethoxy-1H-benzo[d]imidazol-1-yl)nicotinate] |
| 6.3 | 15.8 | 206 | COc1cc2ncn(-c3ccc(C(N)=O)c(NC(CCN)c4cccc(Cl)c4)n3)c2cc1OC (stereo not shown) [Example 11, 2-[[3-amino-1-(3-chlorophenyl)propyl]amino]-6-(5,6-dimethoxybenzimidazol-1-yl)pyridine-3-carboxamide hydrochloride] |
| 27.4 | 16.2 | 260 | COc1cc2ncn(-c3ccc(C(N)=O)c(NCc4ccc(Cl)cc4)n3)c2cc1OC [Example 8, 2-[(4-chlorophenyl)methylamino]-6-(5,6-dimethoxybenzimidazol-1-yl)pyridine-3-carboxamide] |
| 3.4 | 3.3 | 114 | COc1cc2ncn(-c3ccc(C(N)=O)c(NC(CCN)c4ccsc4)n3)c2cc1OC (stereo not shown) [Example 4, 2-[[3-amino-1-(3-thienyl)propyl]amino]-6-(5,6-dimethoxybenzimidazol-1-yl)pyridine-3-carboxamide hydrochloride] |
| 1570 | 828 | 4000 | COC(=O)c1ccc(-n2cnc3cc(OC)c(OC)cc32)nc1N1CCCC1=O [Example 15, Methyl 6-(5,6-dimethoxy-1H-benzo[d]imidazol-1-yl)-2-(2-oxopyrrolidin-1-yl)nicotinate] |
| 2.8 | 2.5 | 39.9 | COc1cc2ncn(-c3ccc(C(N)=O)c(NCCc4ccccc4)n3)c2cc1OC [Example 6, 6-(5,6-dimethoxybenzimidazol-1-yl)-2-(2-phenylethylamino)pyridine-3-carboxamide] |
| 260 | 241 | 1670 | COc1cc2ncn(-c3ccc(C(=O)O)c(N4CCCCC4)n3)c2cc1OC [Example 16, 6-(5,6-Dimethoxy-1H-benzo[d]imidazol-1-yl)-2-(piperidin-1-yl)nicotinic acid] |
| 29.7 | 18.2 | 188 | COc1cc2ncn(-c3ccc(C(N)=O)c(NCc4cccs4)n3)c2cc1OC [Example 7, 6-(5,6-dimethoxybenzimidazol-1-yl)-2-(2-thienylmethylamino)pyridine-3-carboxamide] |
| 15.5 | 7.8 | 156 | COc1cc2ncn(-c3ccc(C(N)=O)c(NCc4ccccc4)n3)c2cc1OC [Example 3, 2-(benzylamino)-6-(5,6-dimethoxybenzimidazol-1-yl)pyridine-3-carboxamide] |
| 1.7 | 2.2 | 69.2 | COc1cc2ncn(-c3ccc(C(N)=O)c(NC(CN)c4ccsc4)n3)c2cc1OC (stereo not shown) [Example 12, 2-[[2-amino-1-(3-thienyl)ethyl]amino]-6-(5,6-dimethoxybenzimidazol-1-yl)pyridine-3-carboxamide hydrochloride] |
| 9470 | 5770 | 13500 | CNC(=O)c1ccc(-n2cnc3cc(OC)c(OC)cc32)nc1-c1cccc(C#N)c1 [Example 18, 2-(3-Cyanophenyl)-6-(5,6-dimethoxybenzimidazol-1-yl)-N-methyl-pyridine-3-carboxamide; Formic Acid] |
| 6.2 | 6.5 | 146 | COc1cc2ncn(-c3ccc(C(N)=O)c(NCCc4cccc(Cl)c4)n3)c2cc1OC [Example 9, 2-[2-(3-chlorophenyl)ethylamino]-6-(5,6-dimethoxybenzimidazol-1-yl)pyridine-3-carboxamide] |
| 7.4 | 9.5 | 331 | COc1cc2ncn(-c3ccc(C(N)=O)c(NC(CCN)c4ccccc4)n3)c2cc1OC (stereo not shown) [Example 5, 2-[(3-amino-1-phenyl-propyl)amino]-6-(5,6-dimethoxybenzimidazol-1-yl)pyridine-3-carboxamide hydrochloride] |
| 1770 | 5740 | > 10000 | COc1cc2ncn(-c3ccc(C(=O)NC4CC4)c(-c4cccc(C#N)c4)n3)c2cc1OC [Example 19, 2-(3-Cyanophenyl)-N-cyclopropyl-6-(5,6-dimethoxybenzimidazol-1-yl)pyridine-3-carboxamide] |

More lines, now with the values behind:

| Compound | IC50 (SIK1) [nM] | IC50 (SIK2) [nM] | IC50 (SIK3) [nM] |
| --- | --- | --- | --- |
| CC(=O)c1ccc(-n2cnc3cc4c(cc32)NCC4)nc1-n1nc(C#N)cc1C [Example 30, 1-[3-acetyl-6-(6,7-dihydro-5H-pyrrolo[3,2-f]benzimidazol-3-yl)-2-pyridyl]-5-methyl-pyrazole-3-carbonitrile] | 547 | 816 | – |
| COc1nn(C)cc1-c1ccc2c(c1)ncn2-c1ccc(C(C)=O)c(-n2nc(C#N)cc2C)n1 [Example 38, 1-[3-acetyl-6-[5-(3-methoxy-1-methyl-pyrazol-4-yl)benzimidazol-1-yl]-2-pyridyl]-5-methyl-pyrazole-3-carbonitrile] | 3490 | 754 | 1790 |
| COc1cc(-n2cnc3cc(Nc4ccc(C)nn4)ccc32)nc(OC)c1C(C)=O [Example 29, 1-[2,4-dimethoxy-6-[5-[(6-methylpyridazin-3-yl)amino]benzimidazol-1-yl]-3-pyridyl]ethanone] | 1460 | 86.7 | – |
| CC(=O)c1ccc(-n2cnc3ccc(Nc4ccc(C)nn4)cc32)nc1-n1nc(C#N)cc1C [Example 28, 1-[3-Acetyl-6-[6-[(6-methylpyridazin-3-yl)amino]benzimidazol-1-yl]-2-pyridyl]-5-methyl-pyrazole-3-carbonitrile] | 308 | 111 | 184 |
| Cc1ccc(Nc2ccc3c(c2)ncn3-c2ccc(C=O)c(N3C[C@H](C#N)C[C@@H]3C)n2)nn1 [Example 33, (3R,5S)-1-[3-formyl-6-[5-[(6-methylpyridazin-3-yl)amino]benzimidazol-1-yl]-2-pyridyl]-5-methyl-pyrrolidine-3-carbonitrile] | 76 | 95.1 | 562 |
| COC(=O)c1ccc(-n2cnc3cc(Nc4ccc(C)nn4)ccc32)nc1-n1nc(OC)cc1C [Example 26, Methyl 2-(3-methoxy-5-methyl-pyrazol-1-yl)-6-[5-[(6-methylpyridazin-3-yl)amino]benzimidazol-1-yl]pyridine-3-carboxylate] | 17800 | 154 | 49.4 |
| CC(=O)c1ccc(-n2cnc3cc(Nc4cccn(C)c4=O)ccc32)nc1-n1nc(C#N)cc1C [Example 37, 1-[3-acetyl-6-[5-[(2-keto-1-methyl-3-pyridyl)amino]benzimidazol-1-yl]-2-pyridyl]-5-methyl-pyrazole-3-carbonitrile] | > 10000 | 502 | 208 |
| Cc1ccc(Nc2ccc3ncn(-c4ccc(C=O)c(-n5nc(C#N)cc5C)n4)c3c2)nn1 [Example 40, 1-[3-formyl-6-[6-[(6-methylpyridazin-3-yl)amino]benzimidazol-1-yl]-2-pyridyl]-5-methyl-pyrazole-3-carbonitrile] | > 30000 | 536 | 8800 |
| CC(=O)c1ccc(-n2cnc3cc(Nc4ccc(C5CCCN5)nn4)ccc32)nc1-n1nc(C#N)cc1C (stereo not shown) [Example 39, 1-[3-acetyl-6-[5-[(6-pyrrolidin-2-ylpyridazin-3-yl)amino]benzimidazol-1-yl]-2-pyridyl]-5-methyl-pyrazole-3-carbonitrile] | 6580 | 43.7 | 728 |
| Cc1ccc(Nc2ccc3ncn(-c4ccc(C(N)=O)c(OC(C)C(F)F)n4)c3c2)nn1 (stereo not shown) [Example 24] | 605 | 206 | 95.7 |
| Cc1ccc(Nc2ccc3c(c2)ncn3-c2ccc(C=O)c(-n3nc(C#N)cc3C)n2)nn1 [Example 36, 1-[3-formyl-6-[5-[(6-methylpyridazin-3-yl)amino]benzimidazol-1-yl]-2-pyridyl]-5-methyl-pyrazole-3-carbonitrile] | 274 | 5.2 | 0.7 |
